Source: patent US8163871B2, “Enzymatic reactions in the presence of keto acids” (Unigene Laboratories, Inc., priority 2004, dated 2012)
Blank lines part the entries; values can stand above or below the compound they belong to.

Test system: peptidylglycine α-amidating monooxygenase (PAM)
Assay: α-Amidation of rhPTH(1-31)Gly32-OH to rhPTH(1-31)-NH2 with PAM in the presence of α-keto acids/esters (CEX-HPLC area %)
Format: biochemical
Conditions: 4 mg/mL rhPTH(1-31)Gly32-OH, 15,000 U/mL PAM, MES pH 6.3-6.5, 4 hours at 37° C.
Source text: Because the R group is unchanged in this reaction, a large number of R moieties is possible. Applicants have tested a number of keto acids (or corresponding esters or salts thereof), and have reported their efficacy in Table 1 below for the amidation of recombinant human parathyroid hormone truncate (first 31 amino acids of PTH followed by C-terminal glycine). Amidation using catalase is also reported in the footnotes to Table 1. […] A preferred concentration was chosen for each compound. Also, separate controls are therefore used with respect to each of the compounds tested in Table 1, so that each compound's performance may be compared to its corresponding control. […] The control values that are set forth in Table 1 are typical values observed for amidation of rhPTH(1-31)Gly32-OH in the absence of the reaction-enhancing compounds of the invention.
To determine the information in Table 1 below, stock solutions of all reagents were prepared in water. Amidations were carried out under the following conditions: 4 mg/mL rhPTH(1-31)Gly32-OH, 30 mM 2-morpholinoethanesulfonic acid (MES) pH [6.3-6.5], 0.5 μM cupric sulfate, 5 mM potassium iodide, 2 mM ascorbate, [0-1%] ethanol and 15,000 U/mL PAM. All reactions were incubated for 4 hours at 37° C. Reagents were added in the following order: rhPTH(1-31)Gly32-OH, water, MES, potassium iodide, ethanol, cupric sulfate, α-keto acid or ester, ascorbate and PAM. All reactions were acidified to pH 2.0 with 6% trifluoroacetic acid and analyzed by CEX-HPLC (area %) to detect formation of the desired product rhPTH(1-31)NH2.

Compound: 2-Keto glutaric acid, sodium salt
% Conversion (10 mM compound): 76%

Compound: CCOC(=O)C(C)=O [Ethyl pyruvate]
% Conversion (50 mM compound): 89%

Compound: O=C(O)C(=O)c1ccccc1 [Benzoylformic acid]
% Conversion (10 mM compound): 82%

Compound: CC(=O)C(=O)O [Pyruvic acid]
% Conversion (6 mM compound, average of triplicate values): 86^a %

Compound: COC(=O)C(C)=O [Methyl pyruvate]
% Conversion (50 mM compound): 86%

Compound: CC(=O)C(=O)[O-].[Na+] [Sodium pyruvate]
% Conversion (8 mM compound): 95%

Now from value to compound:

% Conversion (10-150 mM compound): <48%
Compound: CC(C)CC(=O)C(=O)[O-].[Na+] [4-Methyl-2-oxopentanoic acid, sodium salt]

% Conversion (10-150 mM compound): ≦61%
Compound: CCC(C)C(=O)C(=O)[O-].[Na+] (stereo not shown) [3-Methyl-2-oxopentanoic acid, sodium salt]

% Conversion (16 mM compound): 96%
Compound: CCC(=O)C(=O)[O-].[Na+] [2-Ketobutyric acid, sodium salt]

% Conversion (64 mM compound): 78%
Compound: CC(C)C(=O)C(=O)[O-].[Na+] [3-Methyl-2-oxobutanoic acid, sodium salt]
